From US9295730B2, “Conjugated molecules comprising a peptide derived from the CD4 receptor coupled to a polyanion for the treatment of AIDS” (Institut Pasteur, priority 2008, dated 2016)
Ends that are not written are not given here.

What was measured:
Type in all cases: cell-based
[1] = tested on: uninfected PHA-P-activated PBMC; assay: Cytotoxicity, MTT assay on day 7
Description: (§1) In parallel, cytotoxicity of the samples was evaluated in uninfected PHA-P-activated PBMC by a methyltetrazolium salt (MTT) assay on day 7. Experiments were performed in triplicate and 50, 70 and 90% effective doses and cytotoxic doses were calculated using SoftMaxPro software.

[2] = tested on: X4-tropic HIV-1-LAI; assay: Antiviral assay, PHA-P-activated PBMC infected with HIV-1-LAI, RT activity in supernatants; details: Table 7, VIH-1-LAI; for EC50: read-out: ED50 (the source's name)
[3] = Cytotoxicity, MTT assay on day 7; details: human, uninfected PHA-P-activated PBMC
Description: as §1

[4] = tested on: R5-tropic HIV-1/Ba-L; assay: Antiviral assay, PHA-P-activated PBMC infected with HIV-1/Ba-L, RT activity in supernatants; details: Table 7, VIH-1/Ba-L

Substance | Cytotoxicity CT50 [1] [nM] | Cytotoxicity CT70 [1] [nM] | Cytotoxicity CT90 [1] [nM] | ED70 [2] [nM] | ED90 [2] [nM] | EC50 [2] [nM] | CC50 at 168 h [3] [nM] | ED70 [4] [nM] | ED90 [4] [nM] | EC50 ([4]; read-out: ED50 (the source's name)) [nM]
5-aminopentyl[(3-O-benzyl-4-O-(4-methoxybenzyl)-2-O-sulfonato-α-L-idopyranosyluronate)-(1→4)-O-(3-O-benzyl-2-deoxy-2-sulfoamino-6-O-sulfonato-α-D-glucopyranoside)-(1→4)-O-(3-O-benzyl-2-O-sulfonato-α-L-idopyranosyluronate)]-(1→4)-O-3-O-benzyl-2-deoxy-2-sulfoamino-6-O-sulfonato-α-D-glucopyranoside heptasodium salt [HS4Bz] | >1000 | >1000 | >1000 | >1000 | >1000 | > 1000 | – | – | – | –
MEDLEETLFEEFENYSYDLDYYSLESC [GPR1] | – | >1000 | >1000 | >1000 | >1000 | > 1000 | > 1000 | >1000 | >1000 | > 1000
